Data: US7691572B2, “Method and kit for detecting resistance to antiviral drugs” (priority 1998, dated 2010)
Like-named read-outs stand apart in the source and are kept apart here.

Experiments:
[1] = tested on: HIV-1 reverse transcriptase; assay: Amp-RT assay, inhibition by 3TC-TP, reference viruses; type: biochemical
Excerpt: The phenotypic assay used in this example was based on the analysis of the susceptibility of HIV-1 reverse transcriptase activity from plasma to inhibition by 3TC-TP.
The assay detects reverse transcriptase activity by using a nonretroviral heteropolymeric RNA template derived from the encephalomyocarditis virus (EMCV) genome, and a complementary EMCV-specific DNA oligoprimer. The RT-generated EMCV cDNA is detected by PCR amplification and internal oligoprobing of the PCR product with an EMCV-specific probe.
Amp-RT detects reverse transcriptase activity by using a heterologous RNA template derived from the encephalomyocarditis virus (EMCV), a complementary DNA oligoprimer, and PCR amplification of reverse transcriptase-generated EMCV cDNA. […] To determine the susceptibility of the reverse transcriptase to 3TC-TP, an additional Amp-RT reaction was made in the presence of 3TC-TP, with concentrations of 3TC-TP ranging from 0.1 to 10 μM. […] PCR amplification of reverse transcriptase products was made as follows after the addition of 200 μM of each dNTP. A volume of 50 μl of PCR buffer containing 2.5 units of Taq polymerase, 100 ng of the sense primer EMCF1, and 200 μM of each dNTP was added to the reverse transcriptase mixture.
Wild type HIV-1SUM9, and multiple dideoxy nucleoside-resistant HIV-1SUM8 (Q151M mutation), HIV-1SUM12 (F77L/F116Y/Q151M) and HIV-1SUM13 (A62V/V751/F77L/F116Y/Q151M) MICs were provided by Dr. Mitsuya as described by Shirasaka et al., Proc. Natl. Acad. Sci. USA 92: 2398-2402 (1995). The synthesis and preparation of 3TC-TP were carried out as described by Schinazi et al., Antimicrob. Agents Chemother. 36: 2423-2431 (1992). The crude 3TC-5-TP was purified by FPLC using a HiLoad 26/10Q Sepharose Fast Flow™ Pharmacia chromatography column (Pharmacia, Piscataway, N.J.) and gradient of TEAE buffer (pH 7.0). The compound was characterized by UV spectroscopy, proton and phosphorous NMR, mass spectroscopy and HPLC.
Inhibition of reverse transcriptase by 3TC-TP results from the ability of 3TC-TP to act as a competitive inhibitor for 2′-deoxycytidine-5′-triphosphate (dCTP) and chain terminator as described by Arts and Wainberg, Antimicrob. Agents Chemother. 40: 527-540 (1996). To determine the optimal ratio of 3TC-TP and dCTP needed to inhibit wild type HIV-1 reverse transcriptase, but not 3TC-resistant reverse transcriptase, reverse transcriptase were tested from a wild type (xxBRUpitt) and a 3TC-resistant (M184Vpitt) HIV-1 in the presence of increasing concentrations of 3TC-TP (from 0.1 to 10 μM) and a fixed concentration of dCTP (5 μM).

HIV-1 RT = type: biochemical; conditions: for inhibition of RT activity / RT activity inhibition / Phenotype / % inhibition: 1 μM AZT-TP
Excerpt: Four groups of archived HIV-1 specimens with known genotypes were selected for assay validation. These included WT, MNR, MNR carrying unrelated resistance mutations, and non-MNR specimens carrying classical AZT resistance mutations (Schmit et al., “Multiple drug resistance to nucleoside analogues and nonnucleoside reverse transcriptase inhibitors in an efficiently replicating human immunodeficiency virus type 1 patient strain,” J. Infect. Dis. 174: 962-968 (1996); Winters et al., “A 6-base pair insert in the reverse transcriptase gene of human immunodeficiency virus type 1 confers resistance to multiple nucleoside inhibitors,” J. Clin. Invest. 102: 1769-1775 (1998); Adje et al., “High prevalence of genotypic and phenotypic HIV-1 drug-resistant strains among patients receiving antiretroviral therapy in Abidjan, Cote d'Ivoire,” J. Acquired Immune Deficiency Syndromes 26: 501-506 (2001); Weinstock et al., “Prevalence of mutations associated with reduced antiretroviral drug susceptibility among human immunodeficiency virus type 1 seroconverters in the United States, 1993-1998,” J. Infect. Dis. 182: 330-333 (2000)). Forty-four samples were selected which comprised 7 viral stocks and 37 plasma samples obtained from 34 HIV-1-infected persons.

[2] = 5 μM 3TC-TP, wild type HIV-1, 10^−6 units of RT activity
[3] = specimen no. 40 (T215Y and T69S-EA insertions)

Nc1ccn([C@@H]2CS[C@H](COP(=O)(O)OP(=O)(O)OP(=O)(O)O)O2)c(=O)n1 [3TC-TP, 3TC-5′-triphosphate]
inhibition of reverse transcriptase ([1]; 5 μM 3TC-TP, 3TC-resistant HIV-1 (M184Vpitt), high or low input of RT): No significant inhibition
inhibition of RT activity ([1]; 5 μM 3TC-TP, mixture with 25% 3TC-resistant (M184Vpitt) virus in wild type xxBRUpitt): 87%
inhibition of RT activity ([1]; 5 μM 3TC-TP, mixture with 75% 3TC-resistant (M184Vpitt) virus in wild type xxBRUpitt): 26%
drop in Amp-RT virus load [1, 2]: 2.35 log10
residual reverse transcriptase activity (of control without 3TC-TP) [1, 2]: 0.4%
inhibition of reverse transcriptase ([1]; 5 μM 3TC-TP, wild type xxBRUpitt, 10^−7 and 10^−8 units of RT activity): complete inhibition
IC90 relative to reference viruses ([1]; HIV-1SUM8 (Q151M)): approximately two-fold higher
increase in IC50 compared to wild type virus ([1]; HIV-1SUM12, three MD resistance mutations (F77L/F116Y/Q151M)): six-
increase in IC50 compared to wild type virus ([1]; HIV-1SUM13, all five MD resistance mutations): eight-fold

Cc1cn([C@H]2C[C@H](N=[N+]=[N-])[C@@H](COP(=O)(O)OP(=O)(O)OP(=O)(O)O)O2)c(=O)[nH]c1=O [AZT-TP, AZT-triphosphate]
inhibition of RT activity (HIV-1 RT; 9 specimens containing classical AZT-resistant mutations): 87%
RT activity inhibition (HIV-1 RT; 23 specimens with MNR genotypes): 0-62%
RT activity inhibition (HIV-1 RT; HIV-1 RTs that had more MNR-related mutations): 0-16%
inhibition of RT activity (HIV-1 RT; all 12 specimens with WT genotype): 93%
Phenotype (HIV-1 RT; specimen 12): S
% inhibition (HIV-1 RT; specimen 12, WT): 100%
Phenotype (HIV-1 RT; specimen 13): R
% inhibition (HIV-1 RT; specimen 13, S68G, Q151M): 40%
Phenotype (HIV-1 RT; specimen 14): R
% inhibition (HIV-1 RT; specimen 14, A62A/V, S68G, V75I, F77L, F116Y, Q151M): 6%
Phenotype (HIV-1 RT; specimen 15): R
% inhibition (HIV-1 RT; specimen 15, S68G, V75I, F77L, K103N, F116Y, Q151M, M184V): 0%
Phenotype (HIV-1 RT; specimen 16): R
% inhibition (HIV-1 RT; specimen 16, Q151Q/M): 38%
% inhibition (HIV-1 RT; specimen 17, Q151M): 23%
% inhibition (HIV-1 RT; specimen 18, Q151M): 57%
Phenotype (HIV-1 RT; specimen 26): R
% inhibition (HIV-1 RT; specimen 26, A62V, V75T, Q151M, M184I/M): 11%
% inhibition (HIV-1 RT; specimen 27, V75I, F77L, F116Y, Q151M): 0%
% inhibition (HIV-1 RT; specimen 28, V75I, F77L, F116Y, Q151M): 8%
Phenotype (HIV-1 RT; specimen 29): R
% inhibition (HIV-1 RT; specimen 29, A62V, V75I, F77L, F116Y, Q151M, M184V): 0%
Phenotype (HIV-1 RT; specimen 30): R
% inhibition (HIV-1 RT; specimen 30, K65R, K70R, V75I, F77L, F116Y, Q151M): 13%
Phenotype (HIV-1 RT; specimen 31): R
% inhibition (HIV-1 RT; specimen 31, D67N, Q151M, M184V): 17%
Phenotype (HIV-1 RT; specimen 32): R
% inhibition (HIV-1 RT; specimen 32, V75I, F77L, F116Y, Q151M, M184V): 26%
Phenotype (HIV-1 RT; specimen 35): R
% inhibition (HIV-1 RT; specimen 35, F116Y, Q151M, T215Y, V35I, I135T): 62%
Phenotype (HIV-1 RT; specimen 36): S
% inhibition (HIV-1 RT; specimen 36, D67N, L210W, L214F, T215Y): 95.6%
Phenotype (HIV-1 RT; specimen 37): S
% inhibition (HIV-1 RT; specimen 37, A62V, K70R, L74V, K103N, T215F): 92.6%
Phenotype (HIV-1 RT; specimen 38): S
Phenotype (HIV-1 RT; specimen 39): S
% inhibition (HIV-1 RT; specimen 39, M41L, M184V, L214F, T215Y): 89.1%
Phenotype (HIV-1 RT; specimen 44): S
Phenotype (HIV-1 RT; specimens 1-11, WT): S
% inhibition (HIV-1 RT; specimens 1-11, recent seroconverters, WT): 93-100%
Phenotype (HIV-1 RT; specimens 17, 18): R
Phenotype (HIV-1 RT; specimens 19-21): R
% inhibition (HIV-1 RT; specimens 19-21, A62V, V75I, F77L, F116Y, Q151M): 4-16%
Phenotype (HIV-1 RT; specimens 22-25): R
% inhibition (HIV-1 RT; specimens 22-25, A62V, S68G, V75I, F77L, F116Y, Q151M): 0%
Phenotype (HIV-1 RT; specimens 27-28): R
Phenotype (HIV-1 RT; specimens 33, 34): R
Phenotype (HIV-1 RT; specimens 40-43): S
% inhibition (HIV-1 RT; specimens 40-43, T215Y, T69S-insertions EA/SS/SG): 87-97%
IC50 compared to reference WT HIV-1 isolates (HIV-1 RT; plasma specimen no. 25 (A62V, S68G, V75I, F77L, F116Y, Q151M)): 44 fold
IC50 (HIV-1 RT; [3]): 400 nM
IC90 (HIV-1 RT; [3]): 1000 nM
